Key:
CB2 mRNA = assay: Gene expression of cannabinoid receptor CB2 in duodenal and ileal mucosa of weaned piglets fed thymol (real-time PCR); type: in vivo, pig; conditions: d14, compared to the control group; for CB2 mRNA level, duodenum: P=0.004; for CB2 mRNA level, ileum: P=0.0162
Experimental: (§1) At the end of the study, 8 animals from each treatment group were sacrificed, samples were collected, and analysed. Duodenal and ileal mucosal scrapings were collected. The duodenum and ileum were longitudinally cut to expose the mucosa, washed with a phosphate-buffered saline solution to remove mucus and digesta, then scraped gently, packed, immediately frozen in liquid nitrogen and stored at -80° C. until the analyses of gene and protein expression. Gene expression was analysed using the method reported by […] et al. [The Journal of Nutrition. 2011; 141:2139-45]. Duodenal and ileal scraping samples obtained on d14 of the study were disrupted by grinding them in liquid nitrogen with mortar and pestle, and then homogenised using a TissueLyser (Qiagen, Hilden, Germany). Total RNA was isolated using a NucleoSpin® RNA Kit (Macherey-Nagel, Duren, Germany) according to the manufacturer's instructions. Genomic DNA contamination was removed by treating the samples with the deoxyribonuclease supplied in the extraction kit ([…], RNase-free; Macherey-Nagel). The RNA yield and quality were determined spectrophotometrically by measuring the absorbance at 260 and 280 nm (A260 and A280 nm, respectively) (Microvolume Mode with SmartPath® Technology, Denovix). One microgram of RNA was reverse transcribed using the iScript cDNA Synthesis Kit (Bio-Rad Laboratories Inc., Hercules, Calif., USA) according to the manufacturer's instructions. Real-time PCR was performed using an iCycler Thermal Cycler system and SybrGreen Supermix (Bio-Rad Laboratories Inc.). The thermocycling protocol provided for an initial denaturation step for 1 minute and 30 seconds at 95° C., followed by 40 denaturation cycles at 95° C. for 15 seconds, and 30 seconds of annealing and extension at 60° C. After amplification, a melt curve analysis was performed for all samples, with slow heating from 55° C. to 95° C. at a rate of 0.5° C./s to validate the absence of non-specific products. […] The average threshold cycle (CT) was determined for each gene of interest, and the geometric average was calculated for HK by assuming that CT is the number of cycles required to reach a fixed arbitrary threshold. Delta CT was calculated, then a modification of the 2^-ΔΔCT method [Livak K J, et al., Methods 2001; 25:402-8] was used to analyse the relative expression (fold changes), which was calculated relative to the control group. […] Animals were blocked in a completely randomised design and data were analysed using GraphPad Prism® software (GraphPad Software, Inc., La Jolla, Calif., USA). Data were analysed using one-way ANOVA followed by Tukey's post hoc test to detect differences among treatments. […]

CB1 mRNA = assay: Gene expression of cannabinoid receptor CB1 in duodenal and ileal mucosa of weaned piglets fed thymol (real-time PCR); type: in vivo, pig; conditions: d14, compared to the control group; for CB1 mRNA level, ileum: P=0.0054
Experimental: as §1, with “Denovix).” for “Denovix). One microgram of RNA was reverse transcribed using the iScript cDNA Synthesis Kit (Bio-Rad Laboratories Inc., Hercules, Calif., USA) according to the manufacturer's instructions. Real-time PCR was performed using an iCycler Thermal Cycler system and SybrGreen Supermix (Bio-Rad Laboratories Inc.). The thermocycling protocol provided for an initial denaturation step for 1 minute and 30 seconds at 95° C., followed by 40 denaturation cycles at 95° C. for 15 seconds, and 30 seconds of annealing and extension at 60° C. After amplification, a melt curve analysis was performed for all samples, with slow heating from 55° C. to 95° C. at a rate of 0.5° C./s to validate the absence of non-specific products.”

TRPV1 mRNA = assay: Gene expression of gut chemosensing marker TRPV1 in duodenal and ileal mucosa of weaned piglets fed thymol (real-time PCR); type: in vivo, pig; conditions: for TRPV1 mRNA level, ileum: d14, compared to the control group, P=0.0183
Experimental: as §1, with “Denovix).” for “Denovix). One microgram of RNA was reverse transcribed using the iScript cDNA Synthesis Kit (Bio-Rad Laboratories Inc., Hercules, Calif., USA) according to the manufacturer's instructions. Real-time PCR was performed using an iCycler Thermal Cycler system and SybrGreen Supermix (Bio-Rad Laboratories Inc.). The thermocycling protocol provided for an initial denaturation step for 1 minute and 30 seconds at 95° C., followed by 40 denaturation cycles at 95° C. for 15 seconds, and 30 seconds of annealing and extension at 60° C. After amplification, a melt curve analysis was performed for all samples, with slow heating from 55° C. to 95° C. at a rate of 0.5° C./s to validate the absence of non-specific products.”

[1] = tested on: OR1G1 (Olfactory receptor 1G1) mRNA; assay: Gene expression of gut chemosensing marker OR1G1 in duodenal and ileal mucosa of weaned piglets fed thymol (real-time PCR); type: in vivo, pig; conditions: d14, compared to the control group
Experimental: (§2) At the end of the study, 8 animals from each treatment group were sacrificed, samples were collected, and analysed. Duodenal and ileal mucosal scrapings were collected. The duodenum and ileum were longitudinally cut to expose the mucosa, washed with a phosphate-buffered saline solution to remove mucus and digesta, then scraped gently, packed, immediately frozen in liquid nitrogen and stored at -80° C. until the analyses of gene and protein expression. Gene expression was analysed using the method reported by […] et al. [The Journal of Nutrition. 2011; 141:2139-45]. […] The RNA yield and quality were determined spectrophotometrically by measuring the absorbance at 260 and 280 nm (A260 and A280 nm, respectively) (Microvolume Mode with SmartPath® Technology, Denovix). […] The average threshold cycle (CT) was determined for each gene of interest, and the geometric average was calculated for HK by assuming that CT is the number of cycles required to reach a fixed arbitrary threshold. Delta CT was calculated, then a modification of the 2^-ΔΔCT method [Livak K J, et al., Methods 2001; 25:402-8] was used to analyse the relative expression (fold changes), which was calculated relative to the control group. […] Animals were blocked in a completely randomised design and data were analysed using GraphPad Prism® software (GraphPad Software, Inc., La Jolla, Calif., USA). […]

FAAH mRNA = assay: Gene expression of ECS enzyme FAAH in duodenal and ileal mucosa of weaned piglets fed thymol (real-time PCR); type: in vivo, pig
Experimental: as §2

[2] = piglets, 14-day experiment, up to 510 mg thymol/kg feed
Experimental: […] piglets (Duroc—Large White) weaned at 28 days of age and with a body weight (BW) of 7.71±1.00 kg were divided into 40 pens (4 piglets per pen, castrated males and females were placed in separate pens) and randomly assigned to one of the following experimental groups (n=32): control group fed with the basal diet (T1), a group fed with the basal diet supplemented with 25.5 mg of thymol/kg feed (T2), a group fed with the basal diet supplemented with 51 mg of thymol/kg feed (T3), a group fed with the basal diet supplemented with 153 mg of thymol/kg feed (T4) and a group fed with the basal diet supplemented with 510 mg of thymol/kg feed (T5). Thymol was provided in a form embedded (microencapsulated) in a lipid matrix (Vetagro SpA, Reggio Emilia, Italy). Concentrations of thymol were selected to meet or exceed the upper limit of inclusion in food and feed established by the European Agency for the Evaluation of Medicinal Products and for the feed. […] The health condition of the animals was monitored during the study. […] Growth parameters, such as FI, ADFI, ADG and F:G (FI—feed intake; ADFI—Average daily feed intake; ADG—Average daily gain; F:G—Feed to gain ratio), were measured in the animals housed in each pen on day 14 (d14) of the experiment.

[3] = group T4, 153 mg of thymol/kg feed
[4] = group T5, 510 mg of thymol/kg feed

Cc1ccc(C(C)C)c(O)c1 [thymol]
CB2 mRNA level, duodenum (CB2 mRNA; [3]): Significantly increased
CB2 mRNA level, ileum (CB2 mRNA; [3]): Significantly increased
CB2 mRNA level, duodenum (CB2 mRNA; [4]): Significantly increased
CB2 mRNA level, ileum (CB2 mRNA; [4]): Significantly increased
CB1 mRNA level, ileum (CB1 mRNA; [3]): significantly increased
CB1 mRNA level, ileum (CB1 mRNA; [4]): significantly increased
CB1 mRNA level, duodenum (CB1 mRNA; group T5, 510 mg of thymol/kg feed, P=0.0209): significantly increased
TRPV1 mRNA level, ileum (TRPV1 mRNA; group T4, 153 mg thymol/kg feed): increased
TRPV1 mRNA level, ileum (TRPV1 mRNA; group T5, 510 mg thymol/kg feed): increased
TRPV1 mRNA level, duodenum (TRPV1 mRNA; group T5, 510 mg thymol/kg of feed, d14, P=0.0382): increased
OR1G1 mRNA level, ileum ([1]; group T4, 153 mg thymol/kg feed, P=0.0235): expressed at higher levels
OR1G1 mRNA level, duodenum ([1]; group T5, 510 mg thymol/kg feed, P=0.0210): expressed at higher levels
FAAH mRNA level, ileum (FAAH mRNA; group T4, 153 mg of thymol/kg feed, d14, compared to the control group, P=0.0028): significantly increased
FAAH mRNA level, duodenum (FAAH mRNA; thymol groups T2-T5 (25.5-510 mg/kg feed), d14): Differences in FAAH mRNA levels were not observed
mortality [2]: no mortality was recorded

Reference: patent US20230149324A1, “COMPOSITIONS COMPRISING THYMOL AND AMINO ACIDS FOR USE IN THE TREATMENT OF INFLAMMATORY OR FUNCTIONAL INTESTINAL DISORDERS” (VETAGRO INTERNATIONAL S.R.L., priority 2020, published 2023)
